Reference: PubChem BioAssay (NCI)
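1) Cells in 96-well plates. 2) Compound, 48 h, 5 concentrations. 3) Linear interpolation between surrounding doses. 4) Unreached endpoint = highest concentration. GI50 is the concentration that inhibits growth by half. TGI: concentration producing complete growth inhibition.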

How the values were obtained:
Assay in all cases: inhibition of tumour cell growth, NCI panel, 48 h
COLO 205 colon = system: COLO 205 colon
M14 melanoma = system: M14 melanoma
HOP-18 NSCLC = system: HOP-18 NSCLC
SW-620 colon = system: SW-620 colon
U251 CNS = system: U251 CNS
M19-MEL melanoma = system: M19-MEL melanoma
LOX IMVI melanoma = system: LOX IMVI melanoma
IGROV1 ovarian = system: IGROV1 ovarian
EKVX NSCLC = system: EKVX NSCLC
SK-MEL-28 melanoma = system: SK-MEL-28 melanoma
UACC-257 melanoma = system: UACC-257 melanoma
SK-MEL-2 melanoma = system: SK-MEL-2 melanoma
KM20L2 colon = system: KM20L2 colon
SNB-75 CNS = system: SNB-75 CNS
TK-10 renal = system: TK-10 renal
HL-60(TB) leukemia = system: HL-60(TB) leukemia
K-562 leukemia = system: K-562 leukemia
HCC-2998 colon = system: HCC-2998 colon
UO-31 renal = system: UO-31 renal
UACC-62 melanoma = system: UACC-62 melanoma
A498 renal = system: A498 renal
DMS 273 small cell lung = system: DMS 273 small cell lung
HOP-92 NSCLC = system: HOP-92 NSCLC
SNB-19 CNS = system: SNB-19 CNS
A549 NSCLC = system: A549 NSCLC
LXFL 529 NSCLC = system: LXFL 529 NSCLC
KM12 colon = system: KM12 colon
ACHN renal = system: ACHN renal
MALME-3M melanoma = system: MALME-3M melanoma
SR leukemia = system: SR leukemia
SNB-78 CNS = system: SNB-78 CNS
SK-MEL-5 melanoma = system: SK-MEL-5 melanoma
HOP-62 NSCLC = system: HOP-62 NSCLC
HCT-15 colon = system: HCT-15 colon
SK-OV-3 ovarian = system: SK-OV-3 ovarian
MOLT-4 leukemia = system: MOLT-4 leukemia
OVCAR-8 ovarian = system: OVCAR-8 ovarian
HT29 colon = system: HT29 colon
SF-539 CNS = system: SF-539 CNS
CCRF-CEM leukemia = system: CCRF-CEM leukemia
NCI-H460 lung = system: NCI-H460 lung
NCI-H522 lung = system: NCI-H522 lung
OVCAR-4 ovarian = system: OVCAR-4 ovarian
786-0 renal = system: 786-0 renal
RXF 393 renal = system: RXF 393 renal
OVCAR-5 ovarian = system: OVCAR-5 ovarian
OVCAR-3 ovarian = system: OVCAR-3 ovarian
SF-295 CNS = system: SF-295 CNS
SN12C renal = system: SN12C renal
HCT-116 colon = system: HCT-116 colon
NCI-H23 lung = system: NCI-H23 lung
NCI-H226 lung = system: NCI-H226 lung
SF-268 CNS = system: SF-268 CNS

Q: With `C[CH2][Sn]([CH2]C)([O]C(=O)c1c(F)cccc1F)[O][Sn]([CH2]C)([CH2]C)[O]C(=O)c1c(F)cccc1F` as the compound, how does the GI50 (COLO 205 colon) read?
A: 12.6 µM

Q: What about the TGI (COLO 205 colon) of the same compound?
A: 25.1 µM

Q: And the GI50 (M14 melanoma)?
A: 18.1 µM

Q: And the TGI (M14 melanoma)?
A: 32 µM

Q: What about the GI50 (HOP-18 NSCLC) of the same compound?
A: 22.6 µM

Q: What about the TGI (HOP-18 NSCLC) of the same compound?
A: 37.1 µM

Q: And the GI50 (SW-620 colon)?
A: 16.3 µM

Q: What about the TGI (SW-620 colon) of the same compound?
A: 29.9 µM

Q: And the GI50 (U251 CNS)?
A: 17.4 µM

Q: And the TGI (U251 CNS)?
A: 31.2 µM

Q: What about the GI50 (M19-MEL melanoma) of the same compound?
A: 16.3 µM

Q: What about the TGI (M19-MEL melanoma) of the same compound?
A: 30.9 µM

Q: And the GI50 (LOX IMVI melanoma)?
A: 16.1 µM

Q: And the TGI (LOX IMVI melanoma)?
A: 29.9 µM

Q: What about the GI50 (IGROV1 ovarian) of the same compound?
A: 69 µM

Q: And the TGI (IGROV1 ovarian)?
A: > 100 µM

Q: What about the GI50 (EKVX NSCLC) of the same compound?
A: 16.8 µM

Q: What about the TGI (EKVX NSCLC) of the same compound?
A: 30.6 µM

Q: And the GI50 (SK-MEL-28 melanoma)?
A: 15.6 µM

Q: And the TGI (SK-MEL-28 melanoma)?
A: 29 µM

Q: And the GI50 (UACC-257 melanoma)?
A: 16.5 µM

Q: And the TGI (UACC-257 melanoma)?
A: 30.2 µM

Q: And the GI50 (SK-MEL-2 melanoma)?
A: 14.4 µM

Q: And the TGI (SK-MEL-2 melanoma)?
A: 27.7 µM

Q: What about the GI50 (KM20L2 colon) of the same compound?
A: 26.7 µM

Q: What about the TGI (KM20L2 colon) of the same compound?
A: 68.8 µM

Q: What about the GI50 (SNB-75 CNS) of the same compound?
A: 16.2 µM

Q: And the TGI (SNB-75 CNS)?
A: 29.7 µM

Q: What about the GI50 (TK-10 renal) of the same compound?
A: 19.2 µM

Q: And the TGI (TK-10 renal)?
A: 33.3 µM

Q: And the GI50 (HL-60(TB) leukemia)?
A: 26.5 µM

Q: And the TGI (HL-60(TB) leukemia)?
A: 76.7 µM

Q: What about the GI50 (K-562 leukemia) of the same compound?
A: 8.61 µM

Q: And the TGI (K-562 leukemia)?
A: 37.5 µM

Q: What about the GI50 (HCC-2998 colon) of the same compound?
A: 42.8 µM

Q: And the TGI (HCC-2998 colon)?
A: > 100 µM

Q: What about the GI50 (UO-31 renal) of the same compound?
A: 36 µM

Q: What about the TGI (UO-31 renal) of the same compound?
A: > 100 µM

Q: And the GI50 (UACC-62 melanoma)?
A: 17.6 µM

Q: And the TGI (UACC-62 melanoma)?
A: 31.4 µM

Q: What about the GI50 (A498 renal) of the same compound?
A: 15 µM

Q: What about the TGI (A498 renal) of the same compound?
A: 28.3 µM

Q: What about the GI50 (DMS 273 small cell lung) of the same compound?
A: 18.6 µM

Q: And the TGI (DMS 273 small cell lung)?
A: 35.2 µM

Q: What about the GI50 (HOP-92 NSCLC) of the same compound?
A: 18.8 µM

Q: What about the TGI (HOP-92 NSCLC) of the same compound?
A: 32.9 µM

Q: What about the GI50 (SNB-19 CNS) of the same compound?
A: 17.1 µM

Q: What about the TGI (SNB-19 CNS) of the same compound?
A: 30.8 µM

Q: And the GI50 (A549 NSCLC)?
A: > 100 µM

Q: And the TGI (A549 NSCLC)?
A: > 100 µM

Q: And the GI50 (LXFL 529 NSCLC)?
A: 5.44 µM

Q: And the TGI (LXFL 529 NSCLC)?
A: 18.4 µM

Q: And the GI50 (KM12 colon)?
A: > 100 µM

Q: And the TGI (KM12 colon)?
A: > 100 µM

Q: What about the GI50 (ACHN renal) of the same compound?
A: 19.1 µM

Q: What about the TGI (ACHN renal) of the same compound?
A: 33.2 µM

Q: What about the GI50 (MALME-3M melanoma) of the same compound?
A: 14.9 µM

Q: And the TGI (MALME-3M melanoma)?
A: 28.8 µM

Q: What about the GI50 (SR leukemia) of the same compound?
A: 26.6 µM

Q: And the TGI (SR leukemia)?
A: > 100 µM

Q: And the GI50 (SNB-78 CNS)?
A: 15.8 µM

Q: And the TGI (SNB-78 CNS)?
A: 32.4 µM

Q: What about the GI50 (SK-MEL-5 melanoma) of the same compound?
A: 18.2 µM

Q: What about the TGI (SK-MEL-5 melanoma) of the same compound?
A: 32.3 µM

Q: And the GI50 (HOP-62 NSCLC)?
A: 20.8 µM

Q: What about the TGI (HOP-62 NSCLC) of the same compound?
A: 36.9 µM

Q: And the GI50 (HCT-15 colon)?
A: 17.9 µM

Q: What about the TGI (HCT-15 colon) of the same compound?
A: 32.5 µM

Q: And the GI50 (SK-OV-3 ovarian)?
A: 41.3 µM

Q: What about the TGI (SK-OV-3 ovarian) of the same compound?
A: > 100 µM

Q: And the GI50 (MOLT-4 leukemia)?
A: 23.4 µM

Q: What about the TGI (MOLT-4 leukemia) of the same compound?
A: 88.3 µM

Q: And the GI50 (OVCAR-8 ovarian)?
A: 17.2 µM

Q: And the TGI (OVCAR-8 ovarian)?
A: 30.9 µM

Q: What about the GI50 (HT29 colon) of the same compound?
A: 19.8 µM

Q: And the TGI (HT29 colon)?
A: 42.2 µM

Q: What about the GI50 (SF-539 CNS) of the same compound?
A: 14.9 µM

Q: And the TGI (SF-539 CNS)?
A: 28.1 µM

Q: What about the GI50 (CCRF-CEM leukemia) of the same compound?
A: 3.85 µM

Q: What about the TGI (CCRF-CEM leukemia) of the same compound?
A: 17.1 µM

Q: What about the GI50 (NCI-H460 lung) of the same compound?
A: 20 µM

Q: What about the TGI (NCI-H460 lung) of the same compound?
A: 40.6 µM

Q: And the GI50 (NCI-H522 lung)?
A: 1.1 µM

Q: And the TGI (NCI-H522 lung)?
A: 2.36 µM

Q: What about the GI50 (OVCAR-4 ovarian) of the same compound?
A: 18.8 µM

Q: And the TGI (OVCAR-4 ovarian)?
A: 33 µM

Q: And the GI50 (786-0 renal)?
A: 16 µM

Q: What about the TGI (786-0 renal) of the same compound?
A: 29.7 µM

Q: What about the GI50 (RXF 393 renal) of the same compound?
A: 13.7 µM

Q: And the TGI (RXF 393 renal)?
A: 26.6 µM

Q: And the GI50 (OVCAR-5 ovarian)?
A: 17.9 µM

Q: And the TGI (OVCAR-5 ovarian)?
A: 31.8 µM

Q: And the GI50 (OVCAR-3 ovarian)?
A: 25.9 µM

Q: What about the TGI (OVCAR-3 ovarian) of the same compound?
A: 78.1 µM

Q: What about the GI50 (SF-295 CNS) of the same compound?
A: 20.1 µM

Q: And the TGI (SF-295 CNS)?
A: 34.5 µM

Q: What about the GI50 (SN12C renal) of the same compound?
A: 16 µM

Q: What about the TGI (SN12C renal) of the same compound?
A: 29.5 µM

Q: What about the GI50 (HCT-116 colon) of the same compound?
A: 19 µM

Q: And the TGI (HCT-116 colon)?
A: 34 µM

Q: And the GI50 (NCI-H23 lung)?
A: 15.9 µM

Q: What about the TGI (NCI-H23 lung) of the same compound?
A: 29.3 µM

Q: What about the GI50 (NCI-H226 lung) of the same compound?
A: 22 µM

Q: What about the TGI (NCI-H226 lung) of the same compound?
A: 36.7 µM

Q: What about the GI50 (SF-268 CNS) of the same compound?
A: 15.3 µM

Q: What about the TGI (SF-268 CNS) of the same compound?
A: 28.6 µM
